Results as given in US8501166B2, “Pyrimidinyl indole compounds” (Hutchison Medipharma Limited, priority 2010, dated 2013).
Counter-ions that a name gives are not always drawn.

Key:
[1] = test system: HT-29 human colon cancer xenograft; test: Anti-tumor effects in human colon cancer HT-29 xenograft with/without CPT-11; type: in vivo, Balb/c nu/nu mice
Protocol: IKKβ inhibitor has been reported to repress the HT-29 tumor growth when in combination with CPT-11 (Lagadec P, Griessinger E, Nawrot M P, et al. Br. J. Cancer (2008) 98, 335-344). The anti-tumor effect of the compound is then examined in a human colon cancer HT-29 xenograft in combination with CPT-11. The compound is tested for its anti-tumor effects in a human colon cancer HT-29 xenograft with/without the co-administration of CPT-11 essentially as described in a method reported in the literature (Lagadec P, Griessinger E, Nawrot M P, et al. Br. J. Cancer (2008) 98, 335-344).
The HT-29 human colorectal adenocarcinoma cell line is obtained from ATCC and cultured in McCoy's 5a medium containing 10% fetal calf serum. Male Balb/c nu/nu mice (6-7 weeks old) are injected subcutaneously in the right lateral flank with 0.1 mL of cell suspension containing 3.0×10^6 cells. Mice are divided into six groups, seven days after cell implantation. The test compound is orally administered twice a day at 60 and 20 mg/kg. CPT-11 at 20 mg/kg is peritoneally administered twice a week. In combination treatment, CPT-11 is given 1 h after the administration of the test compound. […] Two orthogonal diameters of the tumor are measured with digital vernier calipers three times a week. Tumor volume (TV) is measured and recorded during treatment period by the formula: TV=LengthxWidth^2/2. […]

[2] = test system: LPS-induced plasma TNFα production; test: LPS-induced plasma cytokine production in mouse, TNFα; type: in vivo, Balb/c mice
Protocol: Balb/c mice (female, body weight from 18 to 20 g) are used in these experiments. The dose dependency, time course study and pharmacokinetic/pharmacodynamic relationship of the test compound are conducted in mice treated with LPS (0.4 mg/kg).
Eight mice/group are administrated with 1 to 100 mg/kg of either the test compound (suspension in 10% acacia) or vehicle by oral gavage at 1 h prior to intraperitoneal injection of 0.4 mg/kg LPS. Ninety minutes after LPS administration, blood samples are collected in tubes containing heparin for anticoagulation. Plasma samples are diluted 3-fold with dilution buffer (R&D, Cat.No. Part 895206, Calibrator Diluent RD5Z). TNFα levels are measured using ELISA kit (R&D, Cat.No. MTA00) based on manufacture's protocol. Data is acquired using a SPECTRAMAX® M2e Plus Plate Reader and analyzed by standard curve fitting.
Alternately, the compound is screened for its ability to inhibit the LPS-induced cytokine production in rat plasma according to the method reported in the literature (Ziegelbauer K, Gantner F, Lukacs N W, et al. Br J. Pharmacol. 2005,145(2):178-92). Briefly, Lewis rats (male, body weight 140 g-180 g) are used in the experiments. Animals (8/group) are given 1 to 100 mg/kg of the testing compound (suspension in 35% solutol & 60% PEG400 & 5% PG) or vehicle by oral gavage at 1 h prior to intraperitoneal administration of LPS 0.4 mg/kg. Ninety minutes after the intraperitoneal administration of LPS, blood is collected in heparin anticoagulated tubes to measure TNFα using R&D System ELISA Kit based on the general Kit protocols. The plasma sample is diluted 100 fold with the dilution buffer and 50 μL of diluted sample is used in each measurement. The plate is read on a SPECTRAMAX® M2e Plus Plate Reader and TNFα levels are analyzed based on the standard curve. The drug levels in plasma are measured with LC-MS-MS. […] Alternately, the compound is screened for its ability to inhibit the LPS-induced cytokine production in mouse plasma. Balb/c mice (female, body weight 18-20 g) are used in the experiments. Mice (8/group) are administrated with 1 to 100 mg/kg of the test compound (suspension in 10% acacia) or vehicle by oral gavage at 1 h prior to introperitoneal (i.p.) administration of LPS (0.4 mg/kg). Ninety minutes after LPS administration, blood is collected with heparin anticoagulated tubes to measure TNFα levels (R&D, Cat.No. MTA00), IL-6 (R&D, Cat.No. M6000B) and IL-1β (R&D, Cat.No. MLB00B) based on the general kit protocols. Diluted or undiluted plasma samples of 50 μL are used for each measurement. […] The plate is read on a SPECTRMAX® M2e Plus Plate Reader and the data is analyzed using a standard curve.

[3] = test system: TNFα gene expression in U87MG xenograft; test: Inhibition of TNFα induced TNFα gene expression in U87MG xenograft; type: in vivo, Balb/c athymic nude mice
Protocol: TNFα stimulates IKKβ signaling and triggers TNFα gene expression. In order to confirm that a compound is targeting IKKβ in vivo, the compound is screened for its ability to inhibit TNFα induced TNFα gene expression in a U87MG (human glioblastoma cell line) xenograft. 3×10^6 U87MG tumor cells are implanted subcutaneously into the right lateral flank of female Balb/c athymic nude mice (6-8 weeks old). […] Nude mice are orally administered with the test compound at 2 h prior to tumor harvesting. TNFα (R&D, Cat: 210-TA) is intravenously injected at 1 h before tumor harvesting at 8 μg/kg.
Total RNA is extracted using the RNEASY® mini Kit (QIAGEN®, Cat: 74126). cDNA is synthesized using the High Capacity cDNA reverse transcription kit (ABI, Cat: 4368813). Quantitative real-time PCR is carried out in a 7500 real-time PCR system (Applied Biosystems) using the corresponding primers/probes for human GAPDH gene(ABI Hs99999905_ml) and human TNFα gene(ABI Hs00174128_ml) and ABgene Absolute QPCR ROX 2× master mix(AB-1139/B).
TNFα gene expression is normalized to β-actin gene expression. The gene counts are read from PCR machine Inhibition (%)=(Counts of Model—Counts of Treatment)/(Counts of Model-Counts of Control)×100%. Example 1 is specifically detailed in Table 3.

[4] = mouse, oral 1 h before LPS 0.4 mg/kg i.p.

| SMILES | HT-29 tumor growth, combination with CPT-11 ([1]; 60 or 20 mg/kg p.o. + CPT-11 20 mg/kg i.p., P<0.05) | HT-29 tumor growth, single agent ([1]; 60 or 20 mg/kg, p.o., twice a day) | plasma TNFα level ([2]; 10 mg/kg oral 1 h before LPS 0.4 mg/kg, 90 min after LPS, baseline 2346.2 pg/mL) | inhibition at 10 mg/kg ([2]; Mus musculus, 10 mg/kg oral 1 h before LPS 0.4 mg/kg, p<0.01) | Inhibition Rate (%) of TNFα induced TNFα gene expression ([3]; 10 mg/kg oral, 2 h) | Inhibition Rate (%) of TNFα induced TNFα gene expression ([3]; 30 mg/kg oral, 2 h) | Inhibition Rate (%) of TNFα induced TNFα gene expression ([3]; 60 mg/kg oral, 2 h) | Inhibition Rate (%) of TNFα induced TNFα gene expression ([3]; 100 mg/kg oral, 2 h) | EC50 [2, 4] | ED50 [2, 4] | Inhibition Rate (%) of TNFα induced TNFα gene expression ([3]; Table 4, 3 mg/kg oral) | Inhibition Rate (%) of TNFα induced TNFα gene expression ([3]; Table 4, 10 mg/kg oral) | Inhibition Rate (%) of TNFα induced TNFα gene expression ([3]; Table 4, 30 mg/kg oral) | Inhibition Rate (%) of TNFα induced TNFα gene expression ([3]; Table 4, 60 mg/kg oral) |
| --- | --- | --- | --- | --- | --- | --- | --- | --- | --- | --- | --- | --- | --- | --- |
| O=C(NC1CC1)c1cccc2[nH]c(-c3nc(N[C@@H]4CCC[C@@H]4O)ncc3Cl)cc12 [Example 1, 2-{5-Chloro-2-[(1R,2S)-2-hydroxycyclopentylamino]pyrimidin-4-yl}-N-cyclopropyl-1H-indole-4-carboxamide hydrochloride] | enhances the anti-tumor effect of CPT-11 | does not inhibit HT-29 tumor growth | 1474.9 pg/mL | 37.1% | 49.1% | 68.5% | 86.2% | 94.9% | – | – | – | – | – | – |
| Cl.O=C(NC1CC1)c1cccc2[nH]c(-c3nc(N[C@@H]4CCC[C@H]4O)ncc3Cl)cc12 [Example 2, 2-{5-Chloro-2-[(1R,2R)-2-hydroxycyclopentylamino]pyrimidin-4-yl}-N-cyclopropyl-1H-indole-4-carboxamide hydrochloride] | – | – | – | – | – | – | – | – | ~2.42 µg/mL | 4.84 mg/kg | 10.7% | 25.3% | 69.7% | 87.8% |
